In test [1] the test system is HUVEC. In kind it is cell-based. The method, then:
To determine the effect of spheroid culture on cell viability, spheroids and fibronectin-adherent HUVEC were recovered between 6 and 72 hours after plating, serially diluted and further cultured for an additional 48 hours before relative cell number was determined. A shift-to-the left or a flattening of the dilution curve indicates decreased viability.
To test whether integrins modulate TNF-induced apoptosis, we cultured HUVEC on fibronectin (integrin-dependent adhesion) or as spheroids (integrin-independent adhesion) in the absence or presence of TNF (200 ng/ml) and of IFNγ (330 ng/ml), an enhancer of TNF cytotoxicity (Dealtry et al., Eur. J. Immunol. 17, 689-693 (1987)). […] To examine the effect of TNF±IFNγ on cell survival we determined the viability of untreated and treated cultures. […]
For survival, HUVEC spheroids plated at 1×10^6 cells/ml in 1% BSA-coated 24 mm wells, or adherent cells plated at 4×10^5 cells in 3 μg/ml fibronectin-coated 35 mm wells of non-tissue culture plates (Evergreen Scientific), were stimulated with TNFα (200 ng/ml=10^4 U/ml)±IFNγ (330 ng/ml=10^4 U/ml). […] Relative cell number was assessed 48 hours later by measuring MTT conversion during the last 4 hours of culture. […]

In test [2] the test system is HUVEC. Briefly: Detection of apoptotic HUVEC in culture (YoPro-1 staining). In kind it is cell-based, human. The settings on record: peptide 300 μM; TNF 200 ng/ml; IFNγ 330 ng/ml. The method, then:
To test whether integrins modulate TNF-induced apoptosis, we cultured HUVEC on fibronectin (integrin-dependent adhesion) or as spheroids (integrin-independent adhesion) in the absence or presence of TNF (200 ng/ml) and of IFNγ (330 ng/ml), an enhancer of TNF cytotoxicity (Dealtry et al., Eur. J. Immunol. 17, 689-693 (1987)). […] In contrast, spheroids treated with TNF±IFNγ increased uptake of YoPro-1 (an increase suppressed by caspase inhibitors BOC, Z-VAD, IETD and DVED), DNA fragmentation, caspase-3 activation and cleavage of PARP (FIG. 2a, 2b and data not shown). To examine the effect of TNF±IFNγ on cell survival we determined the viability of untreated and treated cultures. […] Treatment with IFNγ alone was not cytotoxic (data not shown). HUVEC adhere to immobilized fibronectin via αVβ3 and α5β1 integrins (Rüegg et al., Nature Med. 4, 408-414 (1998)). To test for the individual contribution of these integrins to cell survival on fibronectin, we cultured HUVEC on plastic-immobilized mAbs (imAbs) directed against αVβ3, α1, α5 and α4 integrins.
For morphological evaluation, spheroids were embedded in Epon (Fluka Chemie) and thick sections were stained with 1% Methylene/Azur blue. For immunostaining, frozen spheroid sections were fixed in 4% (Fluka Chemis, Buchs, Switzerland) formaldehyde. After blocking with 1% BSA, sections were sequentially incubated for 1 hour with primary mAb (20 μg/ml) and a Cyan3-labeled GaM antiserum (West Grove, Pa., USA). For the TUNEL reaction, frozen spheroids sections were fixed in 4% paraformaledhyde and processed as described (Ruegg et al., I.e.). Spherouids were countsrstained with propidium iodide for total DNA content. […] The apoptosis index was determined by calculating the ratio between the green (TUNEL staining of fragmented DNA) and red (propidium iodide staining by total DNA) pixels. Number of analyzed spheroids per condition were: C, 31; T, 21; TI, 12. […] Cultures were viewed by inverted fluorescence microscopy (Leica DM IRB, Heerbrugg, Switzerland). […]

Test [3] deals with T1, integrin αVβ3 (Homo sapiens, UniProt P05106+P06756).
T1 construct: EMD121974 disrupted αVβ3-mediated HUVEC adhesion on gelatin; endogenous in cells; host or cells: HUVEC (primary, passages 3 to 7)
Briefly: Cell detachment assay, HUVEC on gelatin. In kind it is cell-based. The settings on record: graded peptide concentrations; 2 hours. The method, then: (§1) Maxisorp II ELISA plates were coated with 1 μg/well of fibrobnectin or 0.5% gelatin overnight at 4° C. in PBS. Coated wells were rinsed and blocked with 1% BSA for 2 hours at 37° C. and rinsed before use. 2×10^4 c/well in basal medium without FCS were added and briefly sedimented by centrifugation (40×g). Cells were let adhere for 2 hours at 37° C. before peptides were added at graded concentrations. After 2 hours, wells were rinsed with warm PBS, and attached cells were fixed in 2% paraformaldehyde, stained with 0.5% crystal violet (Sigma Chemie) and quantified by O.D. reading at 620 nm (Packard Spectra Count). Results are given as O.D. values and represent the mean of duplicate wells ±s.d. of specific adhesion (= adhesion on ECM protein minus adhesion on BSA).

For test [4], the target named is T2, α5β1 (Homo sapiens, UniProt P05556+P08648).
T2 construct: HUVEC adhere to immobilized fibronectin via αVβ3 and α5β1 integrins; endogenous in cells; host or cells: HUVEC (primary, passages 3 to 7)
Briefly: Cell detachment assay, HUVEC on fibronectin. In kind it is cell-based. To be noted: graded peptide concentrations; 2 hours. The method, then:
as §1

In test [5] the test system is BN-175 syngeneic soft tissue sarcoma. The test is described as follows: Isolated limb perfusion (ILP) of BN rats bearing BN-175 soft tissue sarcoma. In kind it is in vivo. To be noted: ILP 30 min; EMD121974 500 μg (plus 100 mg/kg i.p.); TNF 50 μg; 6 days after ILP. How it is done: FIG. 7. Decreased integrin ligation enhances TNF cytotoxicity in in vivo. BN rats bearing the BN-175 syngeneic soft tissue sarcoma were treated with EMD121974 (□), TNF (Δ) or EMD121974/TNF (▪) by ILP technique. (◯) sham-treated rats. Tumor growth was measured for 6 days after ILP. Results represent the mean tumor volume ±s.e.m. (n=6). Small fragments of the syngeneic soft tissue sarcoma BN-175 were implanted in the right hind limb of male BN rats, and treatment started when diameter reached 12-14 mm (Manusama et al., Oncol Rep. 6, 173-177. (1999)). The femoral artery and vein were canulated with silastic tubing and collaterals occluded with a tourniquet. The perfusion was performed for 30 min with 5 ml Heamaccel® (2.4 ml/min) in which the drugs were added as boluses (EMD121974, 500 μg, end concentration in perfusate 170 μM; TNF, 50 μg). The perfusate was oxygenated and the leg kept on 38-39° C. with a warm mattress. Rats perfused with EMD121974 also received systemic administration of the peptide 2 hours before and 3 hours after ILP (100 mg/kg i.p.). Tumor diameter was measured in two directions by caliper measurements and tumor volume (V) was calculated (V= 0.4)(A^2×B, where B represents the largest diameter and A the diameter perpendicular to B). 6 rats were treated per group. Local and systemic side effects were evaluated as described (Manusama et al., Oncol. Rep. 6, 173-177. (1999)). […]

In test [6] the test system is BN175 tumor cells. Briefly: Sensitivity of BN175 tumor cells in vitro. In kind it is cell-based, rat. To be noted: unpublished observation.

T1 sequence (P06756 31-889 limits assumed): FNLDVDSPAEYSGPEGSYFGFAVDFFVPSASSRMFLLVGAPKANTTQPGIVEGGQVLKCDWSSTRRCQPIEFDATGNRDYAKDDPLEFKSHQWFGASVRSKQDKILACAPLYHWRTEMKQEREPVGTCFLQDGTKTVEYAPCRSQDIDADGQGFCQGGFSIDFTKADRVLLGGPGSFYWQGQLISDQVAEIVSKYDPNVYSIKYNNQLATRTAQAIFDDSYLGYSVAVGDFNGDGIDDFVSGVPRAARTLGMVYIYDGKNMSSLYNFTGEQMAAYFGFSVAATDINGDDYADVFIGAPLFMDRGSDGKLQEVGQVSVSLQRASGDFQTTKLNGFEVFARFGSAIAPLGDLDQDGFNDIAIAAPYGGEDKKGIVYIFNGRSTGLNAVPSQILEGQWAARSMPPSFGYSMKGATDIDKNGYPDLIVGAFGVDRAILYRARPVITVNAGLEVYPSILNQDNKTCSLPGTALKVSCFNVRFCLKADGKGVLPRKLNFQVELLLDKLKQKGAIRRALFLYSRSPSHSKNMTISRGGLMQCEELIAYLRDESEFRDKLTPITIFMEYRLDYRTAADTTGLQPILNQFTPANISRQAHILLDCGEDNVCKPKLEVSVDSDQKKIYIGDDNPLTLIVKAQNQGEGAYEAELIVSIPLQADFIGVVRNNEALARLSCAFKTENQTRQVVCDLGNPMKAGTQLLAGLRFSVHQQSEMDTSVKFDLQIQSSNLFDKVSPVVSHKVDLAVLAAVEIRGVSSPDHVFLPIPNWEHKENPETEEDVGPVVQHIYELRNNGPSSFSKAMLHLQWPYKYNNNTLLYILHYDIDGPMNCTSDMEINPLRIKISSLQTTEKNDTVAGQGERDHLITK
T1 sequence (P06756 891-1048 partner limits assumed): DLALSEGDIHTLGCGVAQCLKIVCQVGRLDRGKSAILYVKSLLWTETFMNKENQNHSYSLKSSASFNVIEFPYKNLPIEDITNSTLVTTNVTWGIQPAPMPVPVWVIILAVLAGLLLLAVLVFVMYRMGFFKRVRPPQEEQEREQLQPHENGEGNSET
T1 sequence (P05106 27-788): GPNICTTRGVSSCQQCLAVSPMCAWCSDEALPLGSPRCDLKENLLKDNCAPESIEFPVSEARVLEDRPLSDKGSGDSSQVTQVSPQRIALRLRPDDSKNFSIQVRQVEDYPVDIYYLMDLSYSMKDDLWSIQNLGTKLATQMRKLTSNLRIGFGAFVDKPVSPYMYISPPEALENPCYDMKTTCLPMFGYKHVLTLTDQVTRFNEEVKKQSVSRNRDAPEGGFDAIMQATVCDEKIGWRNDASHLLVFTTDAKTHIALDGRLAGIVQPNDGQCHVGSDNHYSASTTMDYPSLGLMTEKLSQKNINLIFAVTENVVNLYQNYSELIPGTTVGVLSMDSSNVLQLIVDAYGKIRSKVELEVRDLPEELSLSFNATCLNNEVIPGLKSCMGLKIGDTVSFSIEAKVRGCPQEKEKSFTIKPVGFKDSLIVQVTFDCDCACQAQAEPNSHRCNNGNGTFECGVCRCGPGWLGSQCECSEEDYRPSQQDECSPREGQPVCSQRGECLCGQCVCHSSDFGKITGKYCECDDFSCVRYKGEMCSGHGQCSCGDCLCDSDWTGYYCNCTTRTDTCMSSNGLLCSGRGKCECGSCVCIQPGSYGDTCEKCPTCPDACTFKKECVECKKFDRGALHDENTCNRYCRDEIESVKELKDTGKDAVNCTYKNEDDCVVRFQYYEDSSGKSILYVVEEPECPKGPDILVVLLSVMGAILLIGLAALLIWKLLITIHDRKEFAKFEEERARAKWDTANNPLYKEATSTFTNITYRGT
T2 sequence (P08648 42-894 limits assumed): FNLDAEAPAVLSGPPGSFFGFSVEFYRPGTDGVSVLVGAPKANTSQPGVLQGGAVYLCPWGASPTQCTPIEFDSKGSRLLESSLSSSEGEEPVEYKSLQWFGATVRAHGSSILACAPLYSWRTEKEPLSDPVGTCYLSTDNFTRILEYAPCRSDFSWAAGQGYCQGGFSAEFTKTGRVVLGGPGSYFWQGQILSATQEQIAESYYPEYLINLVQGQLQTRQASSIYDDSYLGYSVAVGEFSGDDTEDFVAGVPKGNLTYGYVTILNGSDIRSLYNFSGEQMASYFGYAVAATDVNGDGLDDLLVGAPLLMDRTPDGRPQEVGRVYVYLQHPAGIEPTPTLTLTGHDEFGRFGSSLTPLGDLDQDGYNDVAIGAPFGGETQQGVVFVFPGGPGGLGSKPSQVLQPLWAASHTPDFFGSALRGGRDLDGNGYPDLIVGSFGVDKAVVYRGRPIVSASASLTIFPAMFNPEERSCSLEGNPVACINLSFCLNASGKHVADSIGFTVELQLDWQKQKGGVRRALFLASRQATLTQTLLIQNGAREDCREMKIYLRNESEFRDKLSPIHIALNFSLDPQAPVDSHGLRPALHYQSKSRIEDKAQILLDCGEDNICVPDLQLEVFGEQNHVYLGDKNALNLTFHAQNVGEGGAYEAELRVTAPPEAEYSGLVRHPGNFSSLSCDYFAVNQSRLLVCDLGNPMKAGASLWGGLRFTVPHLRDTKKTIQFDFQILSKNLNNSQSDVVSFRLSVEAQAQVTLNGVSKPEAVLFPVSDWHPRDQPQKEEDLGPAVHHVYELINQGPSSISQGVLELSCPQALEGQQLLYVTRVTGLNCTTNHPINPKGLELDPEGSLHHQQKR
T2 sequence (P08648 895-1049 partner limits assumed): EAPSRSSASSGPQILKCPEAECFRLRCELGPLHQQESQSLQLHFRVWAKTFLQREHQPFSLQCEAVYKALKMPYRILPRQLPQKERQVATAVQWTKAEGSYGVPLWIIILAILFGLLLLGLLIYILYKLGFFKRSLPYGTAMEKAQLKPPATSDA
T2 sequence (P05556 21-798): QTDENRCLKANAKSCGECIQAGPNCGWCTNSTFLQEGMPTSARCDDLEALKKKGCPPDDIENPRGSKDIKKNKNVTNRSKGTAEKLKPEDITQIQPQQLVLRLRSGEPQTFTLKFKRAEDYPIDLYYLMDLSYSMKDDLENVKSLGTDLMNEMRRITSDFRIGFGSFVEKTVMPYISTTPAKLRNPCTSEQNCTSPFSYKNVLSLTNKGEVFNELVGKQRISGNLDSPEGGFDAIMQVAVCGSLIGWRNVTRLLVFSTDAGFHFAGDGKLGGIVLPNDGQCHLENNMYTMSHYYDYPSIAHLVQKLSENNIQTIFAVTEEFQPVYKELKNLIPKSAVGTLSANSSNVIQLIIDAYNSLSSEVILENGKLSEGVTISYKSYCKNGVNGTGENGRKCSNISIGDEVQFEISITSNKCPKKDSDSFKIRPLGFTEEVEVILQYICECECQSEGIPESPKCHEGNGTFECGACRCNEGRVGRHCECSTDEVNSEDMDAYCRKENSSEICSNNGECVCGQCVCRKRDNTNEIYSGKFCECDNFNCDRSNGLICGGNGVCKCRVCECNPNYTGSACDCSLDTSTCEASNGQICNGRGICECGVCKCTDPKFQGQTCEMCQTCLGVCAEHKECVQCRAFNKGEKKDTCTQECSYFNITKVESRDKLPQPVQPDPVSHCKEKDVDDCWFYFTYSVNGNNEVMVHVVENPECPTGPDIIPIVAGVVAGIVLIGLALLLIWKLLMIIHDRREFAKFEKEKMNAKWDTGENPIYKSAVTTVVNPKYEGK

Consider `CC(C)[C@H]1C(=O)N[C@@H](CCCN=C(N)N)C(=O)NCC(=O)N[C@@H](CC(=O)O)C(=O)N[C@H](Cc2ccccc2)C(=O)N1C` [EMD121974, cyclo-(Arg-Gly-Asp-DPhe-NMeVal)], for which the “cell viability / survival of fibronectin-adherent HUVEC, agent alone” value in test [1] (fibronectin-adherent, TNF 200 ng/ml ± IFNγ 330 ng/ml, EMD peptide 300 μM) is on record as “neither TNF/IFNγ nor EMD121974 alone affected survival”. Further, in test [1] (peptide 300 μM, TNF 200 ng/ml, IFNγ 330 ng/ml), the “survival of HUVEC on fibronectin, combined exposure to TNF/IFNγ and peptide” value was “reduced survival”. Besides, the “apoptosis and detachment of HUVEC on fibronectin, combined exposure to TNF/IFNγ and peptide” value in test [2] is “increased apoptosis and detachment”. Besides, the “αVβ3-mediated HUVEC adhesion on gelatin” value in test [3] is “disrupted”. In addition, the “α5β1 component of the α5β1/αVβ3-mediated adhesion to fibronectin” value in test [4] is recorded as “does not affect”. Besides, the tumor growth result in test [5] is on record as “no impact on tumor growth”. Moreover, the “sensitivity of BN175 tumor cells to αVβ3 selective inhibitors” value in test [6] is listed as “low sensitivity”.

Source of the values: US20090035270A1, “COMBINATION THERAPY USING ANTI-ANGIOGENIC AGENTS AND TNF alpha” (priority 2001, published 2009).
